# Measured values: patent US20120277312A1, “Ethylgallate and Related Compounds as a Treatment for Sepsis and Septic Shock” (priority 2009, published 2012)
# Entries after “also recorded” stand apart in the source; their conditions may differ.
# Legend:
# [1] = molecular target: T1, lysozyme (Homo sapiens, UniProt P61626); experiment: Lysozyme-induced hydrogen peroxide generation measured by Ultra Amplex Red assay; type: biochemical; conditions: 6.5×10^−6 mol/L lysozyme
# T1 sequence (P61626 19-148): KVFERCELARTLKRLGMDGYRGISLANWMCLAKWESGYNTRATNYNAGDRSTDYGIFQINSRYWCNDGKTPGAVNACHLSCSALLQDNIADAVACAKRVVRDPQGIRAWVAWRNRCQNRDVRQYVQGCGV
# [2] = system: lysozyme's vasodilatory effect in canine carotid artery preparation; experiment: Lysozyme-induced vasodilation in canine carotid artery preparation (in-vitro); conditions: canine carotid artery preparation, in-vitro
# Method: Lysozyme produces vasodilation by intrinsically generating hydrogen peroxide (H2O2) that leads to activation of signaling pathways resulting in these hemodynamic effects (7).
# Ethyl gallate is added to food as an antioxidant. It is the ethyl ester of gallic acid. Though found naturally in a variety of plant sources including walnuts (8), ethyl gallate is produced from gallic acid and ethanol (9). […] It is of note that if a substance could not inhibit lysozyme's effect in-vitro, then it would be worthless to pursue an in-vivo study.
# [3] = system: POX-induced vasodilation in carotid and superior mesenteric arterial preparations; experiment: Peroxacetic acid (POX)-induced vasodilation in carotid and superior mesenteric arterial preparations; design: species or system canine
# Text: POX is a hydroperoxide (slightly different from the molecule of hydrogen peroxide) that also may be released in septic shock by macrophages and inflammatory cells. […] However, the pathway by which POX caused vasodilation is much different than that caused by lysozyme. […] To some extent, therefore, the improvement in hemodynamics previously observed when ethyl-gallate was infused in our in-vivo study could have also been related to ethyl-gallate's inhibition of the POX pathway in addition to ethyl-gallate's inhibitory-effect on lysozyme mediated pathways.
# The only similarity found between lysozyme and POX is that POX's mechanism of action is also independent of the endothelium and nitric oxide formation, since we could not prevent POX's vasodilatory effect by removal of the endothelium or by nitric oxide inhibition. In contrast to lysozyme, POX seems to cause vasodilation is by activation of an enzyme in the vascular tissue called prostaglandin H synthase (PHS). PHS has an important mechanism of action, in that after activation by hydroperoxides (such as POX), it can in turn activate the cyclooxygenase pathway leading to vasodilation.
# [4] = Hydrogen peroxide scavenging (Amplex Red assay, electrochemical techniques, glucosidase/glucose assay); type: biochemical; conditions: multiple methodologies
# Text: (§1) This generation appears to involve the mechanism described by Wentworth et al in which proteins can utilize water as a catalyst to generate H2O2 (12) Once formed by lysozyme, H2O2 then reacts with intrinsic catalase to form a species of catalase termed Compound I (2) Compound I then acts to generate cyclic-guanosine monophosphate which in turn causes vasodilation. […] These as well as other mechanisms may account for the efficacy of ethyl-gallate treatment in septic shock.
# [5] = molecular target: T2, catalase (Homo sapiens, UniProt P04040); experiment: Conversion of catalase to compound I (wave-scan spectroscopy); type: biochemical
# T2 sequence (P04040 2-527 limits assumed): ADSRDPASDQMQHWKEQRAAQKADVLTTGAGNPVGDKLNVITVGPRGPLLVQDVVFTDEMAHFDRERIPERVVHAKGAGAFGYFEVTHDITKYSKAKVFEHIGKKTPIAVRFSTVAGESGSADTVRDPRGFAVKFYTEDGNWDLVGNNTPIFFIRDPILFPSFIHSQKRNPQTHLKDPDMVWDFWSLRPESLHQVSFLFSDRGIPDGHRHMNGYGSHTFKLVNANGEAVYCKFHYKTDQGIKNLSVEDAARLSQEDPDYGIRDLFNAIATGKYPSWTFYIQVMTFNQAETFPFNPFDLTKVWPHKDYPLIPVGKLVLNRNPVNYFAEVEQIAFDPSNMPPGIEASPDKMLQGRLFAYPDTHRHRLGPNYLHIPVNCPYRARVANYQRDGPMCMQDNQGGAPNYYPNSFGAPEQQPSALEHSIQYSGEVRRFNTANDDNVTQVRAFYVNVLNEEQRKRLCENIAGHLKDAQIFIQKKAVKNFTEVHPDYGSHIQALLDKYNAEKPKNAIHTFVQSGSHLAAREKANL
# Text: as §1
# [6] = In-vivo study of mannitol (not further described)
# Method: Ethyl gallate is added to food as an antioxidant. It is the ethyl ester of gallic acid. Though found naturally in a variety of plant sources including walnuts (8), ethyl gallate is produced from gallic acid and ethanol (9). […] Thus, ethyl gallate, methyl gallate, and ethyl 3,4 dihydroxybenzoate has unique properties for the treatment of septic shock. It is of note that if a substance could not inhibit lysozyme's effect in-vitro, then it would be worthless to pursue an in-vivo study.
Compound,block of lysozyme's vasodilatory effect [2],further results
C[S+](C)[O-] [DMSO],,inhibition of lysozyme-induced hydrogen peroxide generation [1]: do not inhibit
CC(=O)N[C@@H](CS)C(=O)O [N-acetylcyteine],failed to block,
[Ba] [barium],,inhibition of vasodilation caused by POX [3]: could be prevented
CC(/C=C/C=C(\C)C(=O)O[C@@H]1O[C@H](CO[C@@H]2O[C@H](CO)[C@@H](O)[C@H](O)[C@H]2O)[C@@H](O)[C@H](O)[C@H]1O)=C\C=C\C=C(C)\C=C\C=C(/C)C(=O)O[C@@H]1O[C@H](CO[C@@H]2O[C@H](CO)[C@@H](O)[C@H](O)[C@H]2O)[C@@H](O)[C@H](O)[C@H]1O [crocin],failed to block,
COc1cc(/C=C/C(=O)CC(=O)/C=C/c2ccc(O)c(OC)c2)ccc1O [curcumin],failed to block,
O=c1oc2c(O)c(O)cc3c(=O)oc4c(O)c(O)cc1c4c23 [ellagic acid],failed to block,
O=C(O[C@@H]1Cc2c(O)cc(O)cc2O[C@@H]1c1ccc(O)c(O)c1)c1cc(O)c(O)c(O)c1 [epicathechin gallate],failed to block,
O=C(O[C@@H]1Cc2c(O)cc(O)cc2O[C@@H]1c1cc(O)c(O)c(O)c1)c1cc(O)c(O)c(O)c1 [epigalloccatechin gallate],failed to block,
"CCOC(=O)c1ccc(O)c(O)c1 [ethyl 3,4-dihydroxybenzoate]",blocked,
"O=C(O)c1cc(O)c(O)c(O)c1 [gallic acid, reference compound]",could not block; also recorded: failed to block,scavenging of hydrogen peroxide [4]: can scavenge; inhibition of degradation of catalase to compound I [5]: can also prevent
COc1ccccc1O [guaicol],failed to block,
COc1ccc2c(c1)c(CC(=O)O)c(C)n2C(=O)c1ccc(Cl)cc1 [indomethacin],,inhibition of vasodilation caused by POX [3]: could be inhibited
C=C(C)[C@H]1CC=C(C)CC1 [limonene],failed to block,
O=c1cc(-c2ccc(O)c(O)c2)oc2cc(O)cc(O)c12 [luteolin],failed to block,
OC[C@@H](O)[C@@H](O)[C@H](O)[C@H](O)CO [mannitol],worked,inhibition of lysozyme-induced hydrogen peroxide generation [1]: do not inhibit; effect in-vivo [6]: did not have a positive effect
COC(=O)c1cc(O)c(O)c(O)c1 [methyl gallate],blocked,
[K+] [potassium],,inhibition of vasodilation caused by POX [3]: could be prevented
CCCOC(=O)c1cc(O)c(O)c(O)c1 [propyl gallate],failed to block,
O.O.O=c1c(O)c(-c2ccc(O)c(O)c2)oc2cc(O)cc(O)c12 [quercetin dihydrate],failed to block,
N[C@@H](CCC(=O)N[C@@H](CS)C(=O)NCC(=O)O)C(=O)O [reduced glutathione],failed to block,
O=C1O[C@H]([C@@H](O)CO)C([O-])=C1O.[Na+] [sodium ascorbate],failed to block,
O=C([O-])c1ccccc1.[Na+] [sodium benzoate],failed to block,
catechin gallate,failed to block,
